In PubChem BioAssay (NCI) one finds TGI data, which are given here for ten compounds.

The structures appear in SMILES notation.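 96-well plates; 48 h exposure; 5 concentrations. Endpoints by linear interpolation between flanking doses. Not reached: highest tested concentration assigned. At the TGI there is no net growth.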 Where only a bound is given, the exact number is not on record here.

Assay in all cases: DTP human tumour cell line panel, 48 h
Test [1] relates to A549 NSCLC.
For test [2], the system named is SW-620 colon.
The subject of test [3] is PC-3 prostate.
In test [4] the test system is UACC-62 melanoma.
Test [5] deals with OVCAR-8 ovarian.
Test [6] has as its system EKVX NSCLC.
The test system of test [7] is 786-0 renal.
For test [8], the system named is T-47D breast.
Test [9] deals with COLO 205 colon.
Test [10] concerns K-562 leukemia.
The subject of test [11] is SN12C renal.
The test system of test [12] is NCI-H522 lung.
Test [13] has as its system UO-31 renal.
The subject of test [14] is SNB-19 CNS.
Test [15] concerns SF-539 CNS.

Turning to `CC(C)(C)CN1[C@@H]2CCCC[C@H]2N(CC(C)(C)C)P1(=O)C(O)/C=C/c1ccccc1` (stereo partly specified), the TGI in [1], in test [2], in [3], in test [4], in [5] and in test [6] was more than 100 µM in each case. Also, the TGI in test [7] was more than 100 µM; in test [8], more than 100 µM; in test [9], 34.2 µM; in test [10], more than 100 µM; in test [11], 57.5 µM; in test [12] it was more than 100 µM. Further, the concentration for total growth inhibition (TGI) in test [13] and in test [14] was more than 100 µM each time.
For the compound `CCN(CC)c1ccc2cc(-c3csc(C)n3)c(=O)oc2c1`, the concentration for total growth inhibition (TGI) in test [1], in [2], in test [3], in test [4], in test [6] and in test [7] was more than 100 µM in each case. Besides, the TGI in test [8], in test [9], in test [10], in test [11], in test [13] and in test [14] was more than 100 µM throughout. This compound displayed a TGI in test [15] of more than 100 µM.
Consider `Cc1ncc([N+](=O)[O-])n1CCNC(=O)Cn1ccnc1[N+](=O)[O-]`, for which the TGI in test [1], in test [2], in test [3], in [4], in test [5] and in test [7] was more than 100 µM in each case. The total growth inhibition concentration (TGI) in test [8], in test [9], in [10], in [11], in test [12] and in [13] was more than 100 µM each time. Moreover, the TGI in test [14] and in test [15] was more than 100 µM in each case.
In the case of `Cc1ccccc1C1CC(=O)CC(c2ccccc2C)C12C(=O)NC(=S)NC2=O` (stereo unspecified), the concentration for total growth inhibition (TGI) was more than 100 µM in [1]; 90.4 µM in test [2]; 70 µM in [3]; 38.2 µM in test [4]; more than 100 µM in test [6]; more than 100 µM in [7]. The TGI in test [8] was more than 100 µM; in [9] it was 42.4 µM; in test [10] it was more than 100 µM; in test [11], 67 µM; in test [13], 43.2 µM; in [14], more than 100 µM. The concentration for total growth inhibition (TGI) in [15] stood at 48.9 µM.
Turning to `CC(=O)c1c2c(cc3c1CC1(C3)Cc3cc4c(c(C(C)=O)c3C1)CCCC4)CCCC2`, the concentration for total growth inhibition (TGI) in test [1], in [3], in [4], in test [5], in test [6] and in [7] was more than 100 µM each time. Moreover, the TGI was more than 100 µM in [8]; more than 100 µM in test [9]; more than 100 µM in test [10]; more than 100 µM in [11]; more than 100 µM in test [12]; 0.314 µM in [13]. The TGI in [15] was more than 100 µM.
On to `CN(C)CCN=C1Nc2ccccc2C(=O)N2CSCC12` (stereo unspecified), for which the concentration for total growth inhibition (TGI) in [1], in [2], in [3], in [4], in test [5] and in [6] was more than 100 µM each time. Besides, the total growth inhibition concentration (TGI) in test [7], in test [8], in test [9], in test [10], in test [11] and in test [12] was more than 100 µM in each case. In addition, the total growth inhibition concentration (TGI) in test [13] and in test [14] was more than 100 µM in each case.
For the compound `Brc1ccc(N=Nc2ccc3ccccc3n2)cc1`, the total growth inhibition concentration (TGI) in [1] was more than 100 µM; in test [2], more than 100 µM; in test [3], more than 100 µM; in test [4], 43.5 µM; in test [5], more than 100 µM; in [6], more than 100 µM. Moreover, the total growth inhibition concentration (TGI) in test [7] was 27.1 µM; in test [8] it was more than 100 µM; in test [9] it was more than 100 µM; in test [11], more than 100 µM; in test [12], 21.4 µM; in [13], 27.5 µM. Besides, the concentration for total growth inhibition (TGI) was found to be 37.1 µM in [14] and 55.2 µM in [15].
On to `Oc1ccccc1-c1n[nH]c(-c2ccccc2O)n1`, for which the TGI in test [1] is more than 100 µM; in test [2] it was more than 100 µM; in [3], 4.72 µM; in [4], more than 100 µM; in test [5], more than 100 µM; in test [6] it was more than 34 µM. The total growth inhibition concentration (TGI) is more than 100 µM in [7]; 78.5 µM in test [8]; more than 85.8 µM in [9]; more than 100 µM in test [10]; more than 100 µM in test [11]; more than 100 µM in [13]. The compound further displayed a TGI in test [15] of more than 100 µM.
Take `Cc1ccc(S(=O)(=O)OI(O)CC(F)(F)F)cc1`: the TGI in [1], in test [2], in test [3], in test [4], in test [5] and in [6] was more than 100 µM each time. The TGI in [7], in test [8], in test [9], in [10], in test [11] and in test [12] was more than 100 µM throughout. Also, the concentration for total growth inhibition (TGI) in test [13] and in [15] was more than 100 µM each time.
Regarding `CCOC(=O)C(C)c1nc2cc(C(F)(F)F)ccc2[nH]c1=O` (stereo unspecified), the concentration for total growth inhibition (TGI) in [1], in test [2], in test [3], in test [4], in test [5] and in test [6] was more than 100 µM in each case. Besides, the concentration for total growth inhibition (TGI) in test [7] is more than 100 µM; in test [8] it was 67.7 µM; in [9] it was more than 100 µM; in [10], more than 100 µM; in [11], more than 100 µM; in [13] it was more than 100 µM. The concentration for total growth inhibition (TGI) in [14] and in [15] was more than 100 µM throughout.

One may read the TGI as the concentration giving total growth inhibition. A low value points to more potent growth arrest.
